# No end group written: not given here.
# Columns and labels:
# [1] = at 40 µg / ml; cited from earlier work
# Mutton RBCs = assay: haemolysis test; type: cell-based; conditions: maximum concentration 100 µg/ml; 1 hour at room temperature
# Procedure: Mutton RBCs, sampled immediately before the test, were washed with isotonic buffer to obtain clear supernatant. The washed RBCs were incubated with different peptide concentrations for 1 hour at room temperature. After this the solution was centrifuged and the haemolysis in the supernatant quantified with a spectrophotometer at 450 nm. The positive control was RBC lysed with 0,1% of Tryton. The sample determined the maximal optical density. The haemolysis percentage was calculated as sample optical density at 450 nm and positive control optical density ratio. MHC10 was the minimal peptide concentration able to lyse 10% of RBC.
# [2] = test system: epithelial MDBK cells (Madin Darby Bovine Kidney); assay: cytotoxicity against eukaryotic cells, Trypan Blue; type: cell-based; conditions: overnight incubation
# Procedure: Peptides cytotoxicity against epithelial MDBK cells (Madin Darby Bovine Kidney) was determined using cell cultures of about 5x10^5 cells/ml with and without peptides, with overnight incubation at 37°C with CO2. The negative control was in medium without peptide; positive control was in medium with 0.2% of Triton x100, to completely lyse cells. Cells vitality was assessed adding every well with 20 µl of Trypan Blue, incubating other 5 minutes at 37°C. MCC10 was the minimal peptide concentration with 10% of cytotoxicity.
Sequence,hemolysis [1],haemolytic effect (Mutton RBCs),Cytotoxicity: cell number percentage reduction in comparison with control ([2]; peptide 12.5 µg/ml),Cytotoxicity: cell number percentage reduction in comparison with control ([2]; peptide 100 µg/ml)
KFFKFFKFFK [synthetic peptide consisting of cationic lysine residues and hydrophobic phenylalanine residues],severely hemolytic,–,–,–
KLIPILSKTIPAIKNLFYKI [NCP-2],–,< 10%,3%,5%
KLIWILSKTIPAIKNLFYKI [NCP-3],–,< 10%,3%,7%

# From patent EP3298025B1, “NEW AMINO ACID SEQUENCES WITH MI[…] DERIVED FROM NAJA ATRA CARDIOTOXIN 1 (CTX-1)” (Università degli Studi di Parma, priority 2015, dated 2016)
